# Like-named read-outs stand apart in the source and are kept apart here. Marks after values point to notes of the source that are not given here.
# Experiments:
# [1] = system: methicillin-resistant Staphylococcus aureus 03 (MRSA03); experiment: Broth microdilution MIC/MMC; format: cell-based; conditions: Staphylococcus aureus; for MBC: MRSA03; for MIC: MRSA03, 24 h, 37°C, read-out: MIC
# Method: (§1) The antimicrobial activity was performed against five bacterial and two fungal species. The selected microorganisms were the Gram-positive (Staphylococcus aureus ATCC25923, methicillin-resistant Staphylococcus aureus 03 (MRSA03), and methicillin-resistant Staphylococcus aureus 04 (MRSA04)) and Gram-negative (Pseudomonas aeruginosa ATCC27853 and Escherichia coli S2(1)) bacteria and yeast strains of Candida albicans ATCC10231 and Cryptococcus neoformans H99. These microorganisms were taken from our laboratory collection. The fungal and bacterial strains were conserved on Sabouraud Dextrose Agar (SDA, Conda, Madrid, Spain) and nutrient agar (NA, Conda) slants, respectively.
# (§2) The antimicrobial activity was investigated by determining the minimum inhibitory concentrations (MICs), minimum bactericidal concentrations (MBC), and minimum fungicidal concentrations (MFCs). MICs of extracts/compounds were monitored using the broth microdilution method. Dimethyl sulfoxide (DMSO, Fisher Chemicals) was used to dissolve the test sample to produce a stock solution that was twofold serially diluted in Mueller-Hinton broth (MHB) for bacteria and Sabouraud Dextrose Broth (SDB) for fungi to obtain a concentration range of 4096 to 0.25 μg/mL. One hundred microliters of each concentration was introduced into a well (96-well microplate) containing 90 μL of SDB or MHB and 10 μL of inoculum (at 1 × 10^6 CFU/mL for bacteria and 1 × 10^5 spores/mL for yeasts) which were added to obtain a final concentration range of 2048 to 0.125 μg/mL. Plates were covered and incubated on the shaker at 37°C, 30°C, and 30°C during 24 h, 48 h, and 72 h for bacteria, Candida albicans, and Cryptococcus neoformans, respectively. The MICs were visually assessed after the incubation period and were considered the lowest sample concentration that inhibits the growth or the visual growth of the organism.
# (§3) The positive controls were oxacillin (Sigma-Aldrich, Steinheim, Germany) for bacteria and nystatin (Sigma-Aldrich, Steinheim, Germany) for yeasts, and the negative control was broth with 20 μL of DMSO. The assay was carried out in triplicate.
# [2] = system: methicillin-resistant Staphylococcus aureus 04 (MRSA04); experiment: Broth microdilution MIC/MMC; format: cell-based; conditions: Staphylococcus aureus; for MBC: MRSA04; for MIC: MRSA04, 24 h, 37°C, read-out: MIC
# Method: as §1, §2, §3
# [3] = system: Pseudomonas aeruginosa ATCC27853; experiment: Broth microdilution MIC/MMC; format: cell-based; conditions: for MBC / MMC/MIC: Pseudomonas aeruginosa ATCC27853; for MIC: Pseudomonas aeruginosa ATCC27853, 24 h, 37°C, read-out: MIC
# Method: as §1, §2, §3
# [4] = system: Candida albicans ATCC10231; experiment: Broth microdilution MIC/MMC; format: cell-based; conditions: for MIC: Candida albicans ATCC10231, 48 h, 30°C
# Method: as §1, §2, §3
# [5] = system: Staphylococcus aureus ATCC25923; experiment: Broth microdilution MIC/MMC; format: cell-based; conditions: for MBC / MMC/MIC: Staphylococcus aureus ATCC25923; for MIC: Staphylococcus aureus ATCC25923, 24 h, 37°C, read-out: MIC
# Method: as §1, §2, §3
# [6] = system: Cryptococcus neoformans H99; experiment: Broth microdilution MIC/MMC; format: cell-based; conditions: for MIC: Cryptococcus neoformans H99, 72 h, 30°C
# Method: as §1, §2, §3
# Escherichia coli S2(1) = experiment: Broth microdilution MIC/MMC; format: cell-based; conditions: for MIC: 24 h, 37°C, read-out: MIC
# Method: as §1, §2, §3
# [7] = system: tested bacteria and yeasts; experiment: Broth microdilution MIC/MMC, summary over all strains; format: cell-based; conditions: for antimicrobial activity class of pure compounds by cutoff points: against specific microorganism, cutoff points of ref 33; for MIC: read-out: MIC (range over the tested microorganisms)
# Method: as §1, §2, §3
# [8] = Gallic acid equivalent antioxidant capacity (GEAC) assay; conditions: for Gallic acid equivalent antioxidant capacity (GEAC): ABTS radical, 420 nm, 240 s, mean ± SD
# Method: The GEAC test was performed as described previously with some slight modifications. The laccase was purified from Sclerotinia sclerotiorum according to the described protocol. 20 μL of laccase (1 mM stock solution), 20 μL of test sample, 10 μL of ABTS (2,2′-azino-bis(3-ethylbenzothiazoline-6-sulfonic acid) (74 mM stock solution), and 950 μL of acetate buffer (pH = 5.0, 100 mM) were added in a quartz cuvette. The concentrations of the samples in the assay mixture were 800, 400, 200, 100, and 10 μg/mL for the extracts and 200, 100, 50, 25, and 12.5 μg/mL for the isolated compounds. The content of the generated ABTS^●+ radical was measured at 420 nm after 240 s reaction time and was converted to gallic acid equivalents by the use of a calibration curve (Pearson's correlation coefficient: r = 0.998) constructed with 0, 4, 10, 14, 28, 56, and 84 μM gallic acid standards rather than Trolox. Experiments were done in triplicate and repeated three times with similar results.
# [9] = DPPH free radical scavenging assay; conditions: for DPPH free radical scavenging activity (EC50): mean ± SD
# Method: The free radical scavenging activity of extracts and compounds was evaluated according to the described method. The EC50 (μg/mL), which is the amount of sample necessary to inhibit by 50% the absorbance of free radical DPPH, was calculated. Vitamin C was used as a standard control. All the analyses were carried out in triplicate and repeated three times.
Compound,MBC [1] [µg/mL],MIC [1] [µg/mL],MBC [2] [µg/mL],MIC [2] [µg/mL],MBC [3] [µg/mL],MMC/MIC [3],MIC [3] [µg/mL],MFC ([4]; Candida albicans ATCC10231) [µg/mL],MIC ([4]; read-out: MIC) [µg/mL],MBC [5] [µg/mL],MMC/MIC [5],MIC [5] [µg/mL],MFC ([6]; Cryptococcus neoformans H99) [µg/mL],MIC ([6]; read-out: MIC) [µg/mL],MBC (Escherichia coli S2(1)) [µg/mL],MMC/MIC (Escherichia coli S2(1)),MIC (Escherichia coli S2(1)) [µg/mL],antimicrobial activity class of pure compounds by cutoff points [7],MIC [7] [µg/mL],DPPH free radical scavenging activity (EC50) [9],also measured
"COc1ccc(-c2coc3cc(O[C@@H]4O[C@H](CO)[C@@H](O)[C@H](O)[C@H]4O)ccc3c2=O)cc1 [compound 8, ononin]",> 256,256,> 256,256,256,1,256,> 256,128,256,4,64,> 256,64,256,2,128,moderate/low,64 to 256,38.96 ± 1.54^g μg/mL,Gallic acid equivalent antioxidant capacity (GEAC) [8]: 57.43 ± 0.97^j μg/mL
"OC[C@@H](O)[C@@H](O)[C@H](O)[C@H](O)CO [compound 9, D-mannitol]",> 256,> 256,> 256,> 256,> 256,–,256,> 256,> 256,> 256,–,128,> 256,256,> 256,–,128,low/not active,≥ 128,–,antimicrobial activity ([7]; against the tested microorganisms): low activity; activity in TEAC assay [8]: inactive; activity in DPPH assay [9]: inactive
"O=C1O[C@H]([C@@H](O)CO)C(O)=C1O [Vitamin C, reference compound]",–,–,–,–,–,–,–,–,–,–,–,–,–,–,–,–,–,–,–,1.81 ± 0.19^h μg/mL,–
"COc1ccc(-c2coc3cc(OC4OC(CO)C(O)C(O)C4O)cc(O)c3c2=O)cc1 (stereo not shown) [compound 6, sissotrin]",> 256,256,> 256,256,256,2,128,> 256,64,128,2,64,256,32,128,2,64,moderate/low,32 to 256,7.13 ± 0.97^e μg/mL,MMC/MIC ([6]; Cryptococcus neoformans H99): 8; Gallic acid equivalent antioxidant capacity (GEAC) [8]: 72.96 ± 1.54^i μg/mL
"C[C@@H]1[C@H](O)[C@@H](C)/C=C/C=C/CC/C=C/C=C/C=C/C=C/C(O[C@H]2O[C@H](C)[C@@H](O)[C@H](N)[C@@H]2O)CC2O[C@](O)(CC(O)C(O)CCC(O)CC(O)CC(O)CC(=O)O[C@H]1C)CC(O)C2C(=O)O (stereo partly shown) [nystatin, reference compound]",–,–,–,–,–,–,–,–,–,–,–,–,–,–,–,–,–,–,–,–,MMC ([4]; Candida albicans ATCC10231): 1 µg/mL; MMC/MIC ([4]; Candida albicans ATCC10231): 1; MIC [4]: 1 µg/mL; MMC ([6]; Cryptococcus neoformans H99): 2 µg/mL; MMC/MIC ([6]; Cryptococcus neoformans H99): 1; MIC [6]: 2 µg/mL; MMC/MIC (microbicidal activities) ([7]; against all the tested microorganisms): ≤ 4
